Laboratory results taken from article PMC10492782, “Exploiting the aggregation propensity of beta-lactamases to design inhibitors that induce enzyme misfolding” (Nature Communications, 2023).

Experiments:
TEM beta-lactamase = molecular target: T1, TEM beta-lactamase (Escherichia coli, UniProt P62593); assay: β-lactamase activity assay (nitrocefin); type: biochemical; details: chromogenic substrate nitrocefin, Suppl Fig. 8
T1 construct: His-tag (N); TEV cleavage site (N); made in house; host or cells: E. coli BL21 (DE3)
Method: The beta-lactamase assay procedure is based on the hydrolysis of the substrate Nitrocefin, a chromogenic cephalosporin, which produces a colored product (detectable at OD = 490 nm) that is directly proportional to the quantity of beta-lactamase activity. This experiment was carried out in 96-well black polystyrene flat-bottom microtiter plates (BD Biosciences). In brief, 50 μl of different concentrations of peptides or tazobactam in PBS were added to each well, followed by 50 μl of beta-lactamase protein at a final concentration of 12 ng. The plate was incubated at 37 °C for 1 h. The control heat was heated for 1 h at 95 degrees Celsius. Each well received 5 μl of Nitrocefin at a stock concentration of 0.5 mg/mL Nitrocefin. The hydrolyzed Nitrocefin was identified by absorption at 490 nm, which is proportional to the amount of beta-lactamase activity.

[1] = Tolerability, dose escalation; type: in vivo, female C57BL/6JAX mice; details: mice; for Tox beheviour Sub: subcutaneous
Method: We also performed a tolerability study using a dose escalation method by administering the peptide at 2, 5, 10, 15, and 20 mg/kg via different parenteral routes: intravenous (IV), intraperitoneal (IP), and subcutaneous (SC) in female C57BL/6JAX mice, aged 8–10 weeks (Suppl Table 4). […] Vehicle alone (0.9% NaCl) was also administered (IV). After 24 h the animals were sacrificed and the bacterial load in the bladder, kidney, and ureter was quantified by determining the number of colony-forming units (CFU) per mL of tissue extract (Fig. 7E–G). […]

[2] = system: primary Human Umbilical Vein Endothelial Cells (HUVEC); details: 24 h, 400 to 12.5 µg/mL
Method: The Cell Titer Blue assay was performed to evaluate the cell viability according to the instructions of the manufacturer (Promega, USA). The peptide treatments were done in DMEM medium without serum. Briefly, cells were seeded to approximately 20,000 mammalian cells per well in a 96-well flat-bottom plate (BD Biosciences 353075) and incubated at 37 °C with 5% CO2 and 90% humidity. Peptides were diluted in cell medium, and cells were treated for 24 h. 20 μL of the CellTiter Blue reagent was added to each well and the plate was incubated for 1 h at 37 °C. The fluorescence was measured at 590 nm by exciting at 560 nm with a ClarioStar plate reader (BMG Labtech, Germany).

T1 sequence (P62593 24-286 limits assumed): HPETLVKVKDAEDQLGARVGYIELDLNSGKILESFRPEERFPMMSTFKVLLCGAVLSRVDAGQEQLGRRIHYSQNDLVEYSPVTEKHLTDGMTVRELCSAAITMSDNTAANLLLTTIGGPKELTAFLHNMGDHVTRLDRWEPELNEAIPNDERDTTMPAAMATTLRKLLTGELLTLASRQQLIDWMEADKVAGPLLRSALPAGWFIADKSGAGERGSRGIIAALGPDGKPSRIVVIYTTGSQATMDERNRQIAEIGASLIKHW

## Ac-RLTAFLHNRRPRLTAFLRQRR-NH2 [TEM3.2]
TEM beta-lactamase
  effect on beta-lactamase enzymatic function (in words): loss of function of the enzymatic function of the beta-lactamase
[1]; 2 mg/Kg
  Tox beheviour IP: no sign of tox
  Tox beheviour IV: no sign of tox
  Tox beheviour Sub: no sign of tox
[1]; 5 mg/Kg
  Tox beheviour IP: no sign of tox
  Tox beheviour IV: no sign of tox
  Tox beheviour Sub: no sign of tox
[1]; 10 mg/Kg
  Tox beheviour IP: no sign of tox
  Tox beheviour IV: no sign of tox
  Tox beheviour Sub: no sign of tox
[1]; 15 mg/Kg
  Tox beheviour IP: no sign of tox
  Tox beheviour IV: no sign of tox
  Tox beheviour Sub: no sign of tox
[1]; 20 mg/Kg
  Tox beheviour IP: no sign of tox
  Tox beheviour IV: no sign of tox
  Tox beheviour Sub: no sign of tox
[2]
  cytotoxicity, Cell Titer Blue (in words): not cytotoxic
